Results on 14 molecules are retold here after ChEMBL document CHEMBL1131492 (J Med Chem, 1998).

By IC50 is commonly meant the concentration that inhibits the measured activity by half. Lower therefore signals inhibition by little substance.

Experiment [1] has as its target Sodium-dependent dopamine transporter (Rattus norvegicus) (UniProt P23977). The experiment in a line: Potency ratio for Cocaine receptor (IC50 cocaine /IC50 compound).
Experiment [2] shares this target. The experiment is described as follows: Ability to inhibit binding of [3H]cocaine to Cocaine receptor in rat brain. It counts as tissue-based.
Experiment [3] has the same target. The experiment is described as follows: Value is difference between the cocaine binding and DA uptake.
The target is the same in experiment [4]. The experiment in a line: Dopamine (DA) uptake. It counts as functional.
The target in experiment [5] is T1, Sodium-dependent dopamine transporter (Rattus norvegicus, UniProt P23977). The experiment is described as follows: Inhibition [3H]DA uptake in rat striatal synaptosomes. The format is functional, subcellular, Brain.
Experiment [6] deals with T1, Sodium-dependent dopamine transporter. The experiment is described as follows: Inhibition [3H]-cocaine binding to Cocaine receptor in rat striatal membranes. It counts as cell membranes.

T1 sequence (P23977 whole entry): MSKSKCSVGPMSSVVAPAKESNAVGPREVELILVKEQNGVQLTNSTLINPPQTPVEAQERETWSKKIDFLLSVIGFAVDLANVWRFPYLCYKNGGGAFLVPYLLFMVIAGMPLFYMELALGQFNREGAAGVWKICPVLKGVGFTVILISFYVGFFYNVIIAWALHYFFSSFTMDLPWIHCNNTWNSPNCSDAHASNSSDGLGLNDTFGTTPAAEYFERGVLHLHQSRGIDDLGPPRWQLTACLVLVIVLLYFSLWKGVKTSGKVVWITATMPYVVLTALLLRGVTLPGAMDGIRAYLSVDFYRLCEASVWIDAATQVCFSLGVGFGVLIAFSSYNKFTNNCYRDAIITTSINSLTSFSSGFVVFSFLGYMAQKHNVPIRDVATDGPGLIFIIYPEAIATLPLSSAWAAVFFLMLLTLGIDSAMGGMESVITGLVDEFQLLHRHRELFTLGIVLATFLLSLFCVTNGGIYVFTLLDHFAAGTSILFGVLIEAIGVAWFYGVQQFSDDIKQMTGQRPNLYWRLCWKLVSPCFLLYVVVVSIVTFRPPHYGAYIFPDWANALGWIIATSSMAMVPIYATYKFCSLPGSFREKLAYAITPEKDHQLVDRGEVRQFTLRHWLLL
Sodium-dependent dopamine transporter (Rattus norvegicus), sequence (P23977 whole entry): as above

Take `COC(=O)C1C(c2ccc(N)cc2)CC2CCC1N2C` (centres undefined): the Log potency ratio was -0.14 in experiment [1], 2.58 in experiment [2], -0.32 in experiment [3] and 0.18 in experiment [4].
As for `COC(=O)C1C(CCCc2ccccc2)CC2CCC1N2C` (centres undefined), the IC50 in experiment [5] is 2680 nM; in experiment [6], 344 nM. The Log potency ratio in experiment [1] was -0.53; in experiment [2], -1.84; in experiment [3], 0.58; in experiment [4], -1.11.
With `C=C(c1ccccc1)C1CC2CCC(C1C(=O)OC)N2C` (centres undefined), the results for the concentration for half-maximal inhibition (IC50) in experiment [5] and in experiment [6] were 138 nM and 71.6 nM, respectively. The Log potency ratio in experiment [1] was 0.15; in experiment [2] it was -0.83; in experiment [3], -0.03; in experiment [4], 0.18.
Regarding `COC(=O)[C@@H]1C2CC[C@H](C[C@H]1OC(=O)c1ccc3ccccc3c1)N2C`, the IC50 in experiment [5] came out at 813 nM; in experiment [6], 327 nM. The Log potency ratio in experiment [1] was -0.51; in experiment [2], 0.07; in experiment [3], 0.08; in experiment [4], -0.59.
For `COC(=O)[C@@H]1C2CC[C@H](C[C@@H]1c1ccccc1)N2C`, the results for the Log potency ratio in experiment [1], in experiment [3] and in experiment [4] were 0.53, -0.13 and 0.66, respectively.
For the molecule `COC(=O)[C@@H]1C2CC[C@H](C[C@H]1/C=C/c1ccccc1)N2C`, the 50% inhibitory concentration (IC50) in experiment [5] turned out to be 5.88 nM; in experiment [6] it was 2.1 nM. For the same molecule, the Log potency ratio is 1.68 in experiment [1], 0.48 in experiment [2], 0.13 in experiment [3] and 1.55 in experiment [4].
Consider `COC(=O)C1C(OC(=O)c2cccc3ccccc23)CC2CCC1N2C` (centres undefined), for which the 50% inhibitory concentration (IC50) in experiment [5] was 1190 nM; in experiment [6], 742 nM. The Log potency ratio is -0.87 in experiment [1], 0.01 in experiment [2], -0.11 in experiment [3] and -0.76 in experiment [4].
In the case of `COC(=O)[C@H]1C2CC[C@H](C[C@H]1c1ccc3ccccc3c1)N2C`, the IC50 in experiment [5] was determined as 3.53 nM; in experiment [6], 3.32 nM. For the same molecule, the Log potency ratio in experiment [1] was 1.48; in experiment [2], 1.66; in experiment [3] it was -0.29; in experiment [4], 1.77.
With `COC(=O)[C@@H]1C2CC[C@H](C[C@H]1CCc1ccccc1)N2C`, the half-inhibitory concentration (IC50) is 70.5 nM in experiment [5] and 9.94 nM in experiment [6]. Besides, the Log potency ratio in experiment [1] was 1.01; in experiment [2] it was -0.77; in experiment [3], 0.54; in experiment [4] it was 0.47.
`COC(=O)[C@H]1[C@@H](c2ccc(F)cc2)C[C@H]2CC[C@H]1N2C`: the Log potency ratio was 0.59 in experiment [1], -0.49 in experiment [2], -0.35 in experiment [3] and 0.94 in experiment [4].
With `COC(=O)C1C(c2ccc([N+](=O)[O-])cc2)CC2CCC1N2C` (centres undefined), the Log potency ratio in experiment [1] is 0.006; in experiment [2], 1.48; in experiment [3], -0.134.
For `COC(=O)[C@@H]1C2CC[C@H](C[C@H]1c1ccc(-c3ccccc3)cc1)N2C`, the results for the IC50 in experiment [5] and in experiment [6] were 29.4 nM and 10.3 nM, respectively. Further, the Log potency ratio is 0.99 in experiment [1], 0.9 in experiment [2], 0.14 in experiment [3] and 0.85 in experiment [4].
In experiment [5], `COC(=O)C1C(Cc2ccc3ccccc3c2)CC2CCC1N2C` (centres undefined) registered an IC50 of 1350 nM.
With `COC(=O)C1C(Cc2ccccc2)CC2CCC1N2C` (centres undefined), the IC50 in experiment [5] amounted to 1020 nM.
